According to publication PMC8187479, “Sugar phosphate activation of the stress sensor eIF2B” (Nature Communications, 2021):
Entries after “also recorded” stand apart in the source; their conditions may differ.

Biological target: T1, eIF2Bα^N208Y (Homo sapiens, UniProt Q14232, N208Y)
T1 construct: made in house; host or cells: E. coli BL21(DE3)
T1 sequence (Q14232 1-305 N208Y): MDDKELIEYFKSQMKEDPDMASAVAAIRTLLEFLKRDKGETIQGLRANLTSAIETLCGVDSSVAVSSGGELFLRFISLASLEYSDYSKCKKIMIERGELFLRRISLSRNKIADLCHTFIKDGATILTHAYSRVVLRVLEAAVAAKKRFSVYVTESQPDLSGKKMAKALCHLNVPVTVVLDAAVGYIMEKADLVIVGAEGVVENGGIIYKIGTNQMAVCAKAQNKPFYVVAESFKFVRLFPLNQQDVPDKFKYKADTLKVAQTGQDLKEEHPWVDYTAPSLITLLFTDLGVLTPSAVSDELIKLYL
Test: Isothermal titration calorimetry, eIF2Bα N208Y
Format: binding
Conditions: ITC
Method: Interactions between recombinant protein and sugar phosphates were conducted with a MicroCal PEAQ-ITC (Malvern Panalytical Inc.). Experiments were performed in 25 mM HEPES, 150 mM NaCl, pH 7.5 at 20 °C. The sugar phosphate concentration in the syringe was 1 mM or 1.5 mM, and ~3.5 μL aliquots were injected into cells containing 300 μL eIF2Bα or eIF2B(βδγε) at a concentration of 20–30 μM. The final titration curves were fitted using MicroCal ITC data analysis software, assuming a single binding site per monomer.

O=C(CO)[C@@H](O)[C@H](O)[C@H](O)COP(=O)(O)O [F6P, fructose-6-phosphate]
interaction with eIF2Bα N208Y: does not interact; also recorded: abrogates binding
